Results taken from patent US5849259A, “3-,8-substituted deuteroporphyrin derivatives, pharmaceutical agents containing the latter and process for their production” (priority 1992, dated 1998).

Assays:
[1] = Tissue concentrations by ICP-AES after 0.1 mmol/kg i.v. in nude mice with subcutaneously implanted colon cancers (HT29, WiDr); type: in vivo, nude mice (Balb/c nu/nu)
Protocol: (§1) a) 9 nude mice (Balb/c nu/nu) with subcutaneously implanted colon cancers (HT29, WiDr) were each administered by i.v. 0.1 mmol/kg of the mesoporphyrin derivative of example 1b (10 mmol/l dissolved in bidistilled water, pH 7.2, 37° C.). After 0.5, 3 and 24 hours the animals were killed and dissected. The tissue concentrations were determined after corresponding working-up (HNO3 conc.) by ICP-AES and calculated for % of the administered dose per gram of tissue net weight.
e) 9 nude mice (Balb/c nu/nu) with subcutaneously implanted colon cancers (HT29 and WiDr) were each administered by i.v. 0.1 mmol/kg of the deuteroporphyrin derivative of the compound according to example 1c (10 mmol/l dissolved in bidistilled water, pH 7.2, 37° C.). After 0.5, 3 and 24 hours, the animals were killed and dissected. The tissue concentrations were determined after corresponding working-up (HNO3 conc.) by ICP-AES and calculated for % of the administered dose per gram of tissue net weight. Moreover, tissue relaxation times T1 and T2 were determined (Bruker minispec pc 120).
as §1, with “9” for “a) 9”, “8e” for “1b”, “hours,” for “hours”
as §1, with “9” for “a) 9”, “0.1.” for “0.1”, “16f” for “1b”, “0.5 and” for “0.5,”, “3” for “3 and 24”
as §1, with “9” for “a) 9”, “18d” for “1b”, “0.5 and” for “0.5,”, “hours,” for “and 24 hours”
as §1, with “9” for “a) 9”, “19e” for “1b”, “hours,” for “hours”

[2] = tested on: HT29 and WiDr colon cancer; experiment: Signal intensity change in tissues of tumor-bearing (HT29 and WiDr colon cancer) nude mice, example 1c, 0.5 mmol/kg; type: in vivo, nude mice (Balb/c nu/nu); details: 0.5 mmol/kg i.v.
Protocol: d) On a Bruker Biospec nuclear spin tomograph (2.35 Tesla), the signal intensity change in various tissues of tumor-bearing (HT29 and WiDr colon cancer) nude mice (Balb/c nu/nu) was studied after i.v. administration of 0.5 mmol/kg of the compound of example 1c (10 mmol/l, pH 7.2; 37° C. in bidistilled water). The measurement takes place with a multi slice single echo sequence (MSSE). Imaging parameters: TR: 400 ms, TE: 30 ms, layer thickness: 4 mm, number of averages: 4/slice, matrix 256^2. After a preliminary image, 0.5 mmol/kg of the substance was administered and the signal intensity change studied up to 180 minutes p.i.

Relaxivity = type: physicochemical

N,N'-Bis[9-carboxylato-2,5,8-tris(carboxylatomethyl)-2,5,8-triazanonyl-carbamoyl]-mesoporphyrin-IX-13,17-diamide, digadolinium complex, disodium salt [Example 1c]
tissue concentration, kidneys ([1]; 0.5 hour p.i.): 4.06 ± 1.01 % of the administered dose per gram of tissue net weight | tissue concentration, kidneys ([1]; 3 hours p.i.): 4.47 ± 1.63 % of the administered dose per gram of tissue net weight | tissue concentration, kidneys ([1]; 24 hours p.i.): 4.20 ± 0.27 % of the administered dose per gram of tissue net weight | signal intensity change, liver tissue and both tumors ([2]; 5 minutes p.i.): marked signal intensity increase | signal intensity change, muscle ([2]; reference tissue): smaller signal increase | relaxivity (Relaxivity): 17.86 1 mmol^-1 s^-1
